Experimental data taken from patent US12503440B2, “Nitroxoline derivative, preparation method therefor, and use thereof” (Jiangsu Yahong Meditech Co., Ltd., priority 2020, dated 2025).
≈ marks a conversion by molar mass, not a printed value.

Key:
Format in all cases: cell-based
Acinetobacter baumannii = assay: Bacteriostatic activity, micro broth dilution MIC (CLSI); conditions: 20 hours; for MIC50 / MIC90: clinical strains (carbapenem-resistant), CAMHB; for MIC50: read-out: Acinetobacter baumannii Clinical strain MIC50; for MIC90: read-out: Acinetobacter baumannii Clinical strain MIC90; for MIC: standard strain ATCC19606, CAMHB
Procedure: (§1) The purpose of this test is to determine the bacteriostatic activity of the compounds of the present invention against a representative panel of strains (Gram-negative bacteria: […] ATCC 25922, Acinetobacter baumannii ATCC 19606; Gram-positive bacteria: Staphylococcus aureus ATCC29213). Bacteriostatic activity was determined by minimum inhibitory concentration (MIC), MIC50, MIC90. This test was entrusted to Shanghai Junj Lab Co., Ltd. Except for the test drugs, all other test materials were provided by Shanghai Junj Lab Co., Ltd.
(§2) The tested bacteria were several strains of clinically isolated carbapenem-resistant Escherichia coli, several strains of carbapenem-resistant Acinetobacter baumannii, several strains of methicillin-resistant Staphylococcus aureus, and several strains of sensitive Staphylococcus aureus. Duplicate strains isolated from the same patient were eliminated. There were also three quality control strains Escherichia coli ATCC 25922, Acinetobacter baumannii ATCC 19606, and Staphylococcus aureus ATCC 29213. The activity test of each compound was carried out on one or more strains of each of the above test bacteria.
(§3) According to the recommendations of relevant documents of the American Clinical and Laboratory Standards Institute (CLSI), the micro broth dilution method was used to determine the MIC of the compounds of the present invention against clinically isolated strains. The culture solution free of drug was used as the test bacteria positive control, the culture solution free of bacterial solution was used as the drug negative control, and the culture solution free of drug solution and bacterial solution was used as the blank control. • 4.1 Formulation of antibacterial drug: All the compounds of the present invention were dissolved in DMSO. The drug concentration range was 128 mg/L-0.06 mg/L. Specific method: The compounds of the present invention were successively diluted by 1:1 with DMSO to obtain an intermediate series with a range of 25600 mg/L-12.5 mg/L. 30 μL of solution from each tube of the intermediate series of each compound was added to a 3 mL/tube series of single broth tube, and mixed well to obtain an intermediate series with a range of 256 mg/L to 0.125 mg/L. The diluted series solution was added to the drug susceptibility plate line by line, 50 μL of solution per well. All ranges became investigated ranges after being mixed with an equal volume of bacterial solution: 128-0.06 mg/L. • 4.2 Culture medium: The drug susceptibility test used cation adjusted Mueller-Hinton broth (CAMHB). • 4.3 Amount of inoculum: The test bacteria cultured overnight were adjusted to 0.5 McFarland turbidity by the direct colony suspension method, and diluted 100 folds, the final inoculum amount was 10^5 CFU/mL. • 4.4 Culture conditions: The test bacteria were cultured at 35±2° C. for 20 hours in air. 5. Interpretation and Judgment of Results
(§4) The drug susceptibility test results were interpretated by reference to CLSI 2019 edition M100 29th edition criteria.
(§5) The results of drug susceptibility test were statistically analyzed by WHONET version 5.6 software.
(§6) The culture solution free of bacterial solution was used as the drug negative control, and the culture solution free of drug solution and bacterial solution was used as the blank control, wherein no bacteria grew in both solutions.

Escherichia coli = assay: as above; conditions: 20 hours; for MIC50 / MIC90: clinical strains (carbapenem-resistant), CAMHB; for MIC50: read-out: Escherichia coli Clinical strain MIC50; for MIC90: read-out: Escherichia coli Clinical strain MIC90; for MIC: standard strain ATCC25922, CAMHB
Procedure: as §1, §2, §3, §4, §5, §6

Staphylococcus aureus = assay: as above; conditions: 20 hours; for MIC50 / MIC90: clinical strains (methicillin-resistant and sensitive), CAMHB; for MIC50: read-out: Staphylococcus aureus Clinical strain MIC50; for MIC90: read-out: Staphylococcus aureus Clinical strain MIC90; for MIC: standard strain ATCC29213, CAMHB
Procedure: as §1, §2, §3, §4, §5, §6

[1] = system: Bladder cancer cell line UM-UC-3; assay: Inhibitory activity on cancer cells, CellTiter-Glo viability, 72 h; conditions: Homo sapiens, UMUC3, UM-UC-3, 72 h
Description: • HUVEC (purchased from Allcells Biological Technology (Shanghai) Co., Ltd.); UM-UC-3 (ATCC); LNCaP Clone FGC (ATCC); RM-1 (purchased from Nanjing Cobioer Biosciences Co., Ltd.) 2. Reagents • Endothelial cell complete medium (Allcells, H-004) • Medium RPMI1640 (ATCC, 30-2001) • Medium EMEM (ATCC, 30-2003) • Medium DMEM (Gibco, 12430-054) • Fetal bovine serum (Gibco, 10091148) • Penicillin-streptomycin double anti-body (Gibco, S110JV) • DPBS (Gibco, 14190-144) • CellTiter-Glo® kit (Promega, G7573) • Trypsin (0.25%), phenol red (Gibco, 25200-056) • DMSO (Sigma, D2650) 3. Instruments • Biological safety cabinet (Suzhou Antai Airtech Co., Ltd., BSC-1300A II) • Inverted microscope (Nikon, CKX53) • Automated cell counter (Life Technologies, countess II) • Multifunctional microplate reader (Biotek, H1FM) • Shaker (Hangzhou Allsheng Instruments Co., Ltd., OS-100) • GraphPad Prism 5.0 software • XLFIT 5.3 (Inforstack Shanghai Co., Ltd.) 4. Test Method
In this test method, the following experiments were carried out in a biological safety cabinet, and the specific steps are as follows: • (1) On the first day, the cells were seeded in a 96-well plate, and the previous medium was poured off. 5 mL of DPBS was added to wash the cells, and then removed by a pipette. Then, 1 mL of trypsin (0.25%) was added, and the plate was placed in a cell culture incubator at 37° C., 5% CO2 for digestion, and taken out after about 2 to 5 minutes. New corresponding medium was added, and pipetted to resuspend the cells evenly, and the cells were then counted with an automated cell counter.
The digestion was observed using an inverted microscope.
Regarding to HUVEC, the medium used was endothelial cell complete medium; regarding to UM-UC-3, the medium used was 89v % EMEM+10v % fetal bovine serum+1 v % penicillin-streptomycin double anti-body; regarding to LNcaP Clone FGC, the medium used was 89v % RPM11640+10v % fetal bovine serum+1 v % penicillin-streptomycin double anti-body; and regarding to RM-1, the medium used was 89v % DMEM+10v % fetal bovine serum+1v % penicillin-streptomycin double anti-body. • (2) HUVEC cells were seeded in columns 1 to 11 of a 96-well plate (Corning, Cat. No. 3610) at a density of 2000 cells per well in 100 μL of medium, and the medium free of cell was added to the wells of column 12. The other three types of cells were also seeded, wherein UM-UC-3 and RM-1 cells were seeded at a density of 3000 cells per well, and LNCap Clone FGC cells were seeded at a density of 5000 cells per well. Then, the plate was placed in an incubator at 37° C., 5% CO2 for 24 hours. • (3) On the second day, the compounds of the present invention and the reference drug nitroxoline (obtained according to the preparation method disclosed in the prior art) were diluted in gradient (2.5 folds, started at 100 μmol) to obtain 8 dose points (there were a total of 8 columns of wells; the first column of wells had the highest concentration, the concentration decreased in turn, and the last column of wells had the lowest concentration). 10 uL of the compound diluted in gradient was added to the 100 μL of cells in column 1 to column 10 with an 8-channel pipette. 10 μL of the corresponding medium containing 0.33v % DMSO was added to column 11 and column 12. The plate was incubated in an incubator at 37° C., 5% CO2 for 72 hours (note: column 11 was used as MAX well with cells and no compounds; and column 12 was used as MIN well with no cells and no compounds). • (4) After treating with the compounds of the present invention for 72 hours, the cell viability detection reagents in the above CellTiter-Glo® kit were added to the 96-well plate at 50 μL per well according to the instructions. […]

SMILES | MIC50 (Acinetobacter baumannii) [µg/mL] | MIC90 (Acinetobacter baumannii) [µg/mL] | MIC50 (Escherichia coli) [µg/mL] | MIC90 (Escherichia coli) [µg/mL] | MIC (Escherichia coli) [µg/mL] | MIC50 (Staphylococcus aureus) [µg/mL] | MIC90 (Staphylococcus aureus) [µg/mL] | IC50 [1] [µM] | MIC (Acinetobacter baumannii) [µg/mL] | MIC (Staphylococcus aureus) [µg/mL]
O=[N+]([O-])c1cc(F)c(O)c2ncccc12 [Example 1, 7-fluoro-5-nitroquinolin-8-ol] | 8 (≈ 38.4 µM) | 16 (≈ 76.9 µM) | 4 (≈ 19.2 µM) | 8 (≈ 38.4 µM) | 8 (≈ 38.4 µM) | 4 (≈ 19.2 µM) | 4 (≈ 19.2 µM) | – | – | –
O=[N+]([O-])c1ccc(O)c2nccc(N3CCCCC3)c12 [Example 6, 5-nitro-4-(piperidin-1-yl)quinolin-8-ol] | – | – | – | – | – | – | – | 7 | – | –
O=[N+]([O-])c1ccc(O)c2nccc(C3CCCCC3)c12 [Example 25, 4-cyclohexyl-5-nitroquinolin-8-ol] | 32 (≈ 118 µM) | 32 (≈ 118 µM) | 32 (≈ 118 µM) | 32 (≈ 118 µM) | 32 (≈ 118 µM) | 4 (≈ 14.7 µM) | 4 (≈ 14.7 µM) | – | 32 (≈ 118 µM) | 4 (≈ 14.7 µM)
O=[N+]([O-])c1ccc(O)c2nccc(C(F)(F)F)c12 [Example 26, 5-nitro-4-trifluoromethylquinolin-8-ol] | 8 (≈ 31 µM) | 8 (≈ 31 µM) | 8 (≈ 31 µM) | 16 (≈ 62 µM) | 8 (≈ 31 µM) | 2 (≈ 7.75 µM) | 2 (≈ 7.75 µM) | – | 8 (≈ 31 µM) | 2 (≈ 7.75 µM)
N#Cc1ccnc2c(O)ccc([N+](=O)[O-])c12 [Example 27, 4-cyano-5-nitroquinolin-8-ol] | 32 (≈ 149 µM) | 32 (≈ 149 µM) | 16 (≈ 74.4 µM) | 32 (≈ 149 µM) | 16 (≈ 74.4 µM) | 16 (≈ 74.4 µM) | 16 (≈ 74.4 µM) | – | 16 (≈ 74.4 µM) | 16 (≈ 74.4 µM)
CCOC(=O)c1cnc2c(O)ccc([N+](=O)[O-])c2c1 [Example 32, ethyl 8-hydroxy-5-nitroquinoline-3-carboxylate] | 64 (≈ 244 µM) | 128 (≈ 488 µM) | 64 (≈ 244 µM) | 128 (≈ 488 µM) | 64 (≈ 244 µM) | 2 (≈ 7.63 µM) | 4 (≈ 15.3 µM) | – | 32 (≈ 122 µM) | 4 (≈ 15.3 µM)
CC(C)c1cc(O)c2ncccc2c1[N+](=O)[O-] [Example 33, 8-hydroxy-6-isopropyl-5-nitroquinoline] | 32 (≈ 138 µM) | 64 (≈ 276 µM) | 32 (≈ 138 µM) | 32 (≈ 138 µM) | – | 4 (≈ 17.2 µM) | 4 (≈ 17.2 µM) | – | – | –
O=[N+]([O-])c1c(C2CC2)cc(O)c2ncccc12 [Example 34, 8-hydroxy-6-cyclopropyl-5-nitroquinoline] | 8 (≈ 34.7 µM) | 32 (≈ 139 µM) | 16 (≈ 69.5 µM) | 16 (≈ 69.5 µM) | – | 4 (≈ 17.4 µM) | 4 (≈ 17.4 µM) | – | – | –
O=C(OCC1CC1)c1cnc2c(O)ccc([N+](=O)[O-])c2c1 [Example 39, cyclopropylmethyl 8-hydroxy-5-nitroquinoline-3-carboxylate] | – | – | 64 (≈ 222 µM) | 64 (≈ 222 µM) | 64 (≈ 222 µM) | 1 (≈ 3.47 µM) | 1 (≈ 3.47 µM) | – | – | 2 (≈ 6.94 µM)
CCN(CC)C(=O)c1cnc2c(O)ccc([N+](=O)[O-])c2c1 [Example 40, N,N-diethyl-8-hydroxy-5-nitroquinoline-3-carboxamide] | – | – | 8 (≈ 27.7 µM) | 8 (≈ 27.7 µM) | 8 (≈ 27.7 µM) | 64 (≈ 221 µM) | 64 (≈ 221 µM) | – | – | 32 (≈ 111 µM)
O=[N+]([O-])c1c(F)cc(O)c2ncccc12 [Example 42, 8-hydroxy-6-fluoro-5-nitroquinoline] | – | – | 64 (≈ 307 µM) | 64 (≈ 307 µM) | 64 (≈ 307 µM) | 64 (≈ 307 µM) | 64 (≈ 307 µM) | – | – | 64 (≈ 307 µM)
O=C(OC1CCCCC1)c1cnc2c(O)ccc([N+](=O)[O-])c2c1 [Example 43, cyclohexyl 8-hydroxy-5-nitroquinoline-3-carboxylate] | 128 (≈ 405 µM) | 128 (≈ 405 µM) | 128 (≈ 405 µM) | 128 (≈ 405 µM) | 128 (≈ 405 µM) | 2 (≈ 6.32 µM) | 2 (≈ 6.32 µM) | – | 128 (≈ 405 µM) | 4 (≈ 12.6 µM)
